Assay [1] concerns sorbitol accumulation in the sciatic nerve of streptozotocinized (i.e., diabetic) rats. In words: inhibition of sorbitol accumulation in the sciatic nerve of acutely streptozotocinized (diabetic) rats. Type of assay: in vivo, rat. To be noted: measured at 27 h, vs untreated. On the procedure: (§1) The activity of the compounds of the present invention, as agents for the control of chronic diabetic complications, is determined by their ability to successfully pass one or more of the following standard biological and/or pharmacological tests, viz., (1) measuring their ability to inhibit the enzyme activity of isolated aldose reductase; (2) measuring their ability to reduce or inhibit sorbitol accumulation in the sciatic nerve of acutely sterptozotocinized (i.e., diabetic) rats; (3) measuring their ability to reverse already-elevated sorbitol levels in the sciatic nerve and lens of chronic streptozotocin-induced diabetic rats; (4) measuring their ability to prevent or inhibit galactitol formation in the lens of acutely galactosemic rats, and (5) measuring their ability to delay cataract formation and reduce the severity of lens opacities in chronic galactosemic rats.
The following spiro-hydantoin compounds of Preparation C and Examples I-V, VII-IX, XI-XVII, XIX-XXV, XXVII and XXX-XXXIII, respectively, were tested for their ability to reduce or inhibit sorbitol accumulation in the sciatic nerve of streptozotocinized (i.e., diabetic) rats by the procedure essentially described in U.S. Pat. No. 3,821,383. In the present study, the amount of sorbitol accumulation in the sciatic nerves was measured 27 hours after induction of diabetes. The compounds were administered orally at the dose levels indicated at 4, 8 nd 24 hours following the administration of streptozotocin. The results obtained in this manner are presented below in terms of percent inhibition (%) afforded by the test compound as compared to the case where no compound was administered (i.e., the untreated animal where sorbitol levels normally rise from approximately […]. tissue to as high as […]. tissue in the 27-hour test period): […]

In assay [2] the target is T1, aldose reductase (Bos taurus, UniProt P16116).
T1 construct: partially purified aldose reductose enzyme obtained from calf lens; from tissue; host or cells: calf lens
Briefly: inhibition of aldose reductase enzyme activity (procedure of S. Hayman et al., modified by K. Sestanj et al.). Format: biochemical, calf. Conditions: calf lens enzyme, read-out: Percent inhibition of aldose reductase enzyme activity; for inhibition at 100 µM: 10^-4 M; for inhibition at 10 µM: 10^-5 M; for inhibition at 1 µM: 10^-6 M; for inhibition at 0.1 µM: 10^-7 M. The procedure:
as §1
Hayman et al., as described in the Journal of Biological Chemistry, Vol. 240, p. […] In every case, the substrate employed ws partially purified aldose reductose enzyme obtained from calf lens.

Where [3] appears, read: 2.5 mg./kg. orally at 4, 8 and 24 h after streptozotocin.
Where [4] appears, read: 1.5 mg./kg. orally at 4, 8 and 24 h after streptozotocin.
The mark [5] stands for this setting: 5.0 mg./kg. orally at 4, 8 and 24 h after streptozotocin.
The mark [6] stands for this setting: 10 mg./kg. orally at 4, 8 and 24 h after streptozotocin.

Usually inhibition stands for the relative decrease from the control value, in per cent. Consider `COc1ccc2c(c1)C1(CCO2)NC(=O)NC1=O` (stereo not drawn) [Ex. XXI, 6-methoxy-spiro[chroman-4,4'-imidazolidine]-2',5'-dione], for which the “Percent inhibition of sorbitol accumulation in the sciatic nerve” value (“Percent inhibition” below) in assay [1] (setting [3]) is reported as 24%. In addition, in assay [2], the inhibition at 100 µM amounted to 100%, the inhibition at 10 µM was determined as 92%, the inhibition at 1 µM is 35% and the inhibition at 0.1 µM came out at 7%.
As for `Cc1cc(C)c2c(c1)C1(CCO2)NC(=O)NC1=O` (stereo not drawn) [Ex. XXXIV, 6,8-dimethyl-spiro-[chroman-4,4'-imidazolidine]-2',5'-dione], in assay [2], the inhibition at 100 µM was found to be 71%, the inhibition at 10 µM was determined as 84%, the inhibition at 1 µM amounted to 54% and the inhibition at 0.1 µM is 17%.
Regarding `O=C1NC(=O)C2(CCSc3cc(Cl)ccc32)N1` (stereo not drawn) [Ex. XIV, 7'-chloro-spiro-[imidazolidine-4,4'-thiochroman]-2,5-dione], the “Percent inhibition” value in assay [1] (setting [4]) was 26%. In assay [2], the inhibition at 100 µM worked out at 70%.
For the compound `COc1ccc2c(c1)C1(CC2)NC(=O)NC1=O` (stereo not drawn) [Ex. II, 6'-methoxy-spiro-[imidazolidine-4,1'-indan]-2,5-dione], the “Percent inhibition” value in assay [1] (setting [5]) came to 6%. Further, the “Percent inhibition” value in assay [1] (setting [6]) stood at 54%. In assay [2], the inhibition at 100 µM came out at 97%, the inhibition at 10 µM came out at 61%, the inhibition at 1 µM came to 17% and the inhibition at 0.1 µM came out at 1%.
Take `COc1ccc2c(c1)C1(CCS2)NC(=O)NC1=O` (stereo not drawn) [Ex. VIII, 6'-methoxy-spiro-[imidazolidine-4,4'-thiochroman]-2,5-dione]: the “Percent inhibition” value in assay [1] (setting [5]) came out at 26%. Further, in assay [2], the inhibition at 100 µM was 76%, the inhibition at 10 µM is 60%, the inhibition at 1 µM was 18% and the inhibition at 0.1 µM came to 7%.
Take `O=C1NC(=O)C2(CCOc3c(Cl)cccc32)N1` (stereo not drawn) [Ex. XXVII, 8-chloro-spiro-[chroman-4,4'-imidazolidine]-2',5'-dione]: the “Percent inhibition” value in assay [1] (setting [4]) was 30%. Also, in assay [2], the inhibition at 100 µM was 87%, the inhibition at 10 µM was determined as 85%, the inhibition at 1 µM stood at 52% and the inhibition at 0.1 µM is 6%.
`O=C1NC(=O)C2(CCSc3ccc(Br)cc32)N1` (stereo not drawn) [Ex. X, 6-bromo-spiro-[imidazolidine-4,4'-thiochroman]-2,5-dione]: in assay [2], the inhibition at 100 µM was determined as 32%.
Regarding `O=C1NC(=O)C2(CCSc3ccccc32)N1` (stereo not drawn) [Ex. VII, spiro-[imidazolidine-4,4'-thiochroman]-2,5-dione], the “Percent inhibition” value in assay [1] (setting [5]) is on record as 39%. In addition, in assay [1] (setting [6]), the “Percent inhibition” value came out at 65%. Moreover, in assay [2], the inhibition at 100 µM worked out at 92%, the inhibition at 10 µM turned out to be 64%, the inhibition at 1 µM amounted to 10% and the inhibition at 0.1 µM is -5%.
With `O=C1NC(=O)C2(CCS(=O)(=O)c3ccc(F)cc32)N1` (stereo not drawn) [Ex. XXXI, 6'-fluoro-spiro-[imidazolidine-4,4'-thiochroman]-2,5-dione-1',1'-dioxide], the “Percent inhibition” value in assay [1] (setting [3]) was found to be 47%. Also, in assay [1] (setting [5]), the “Percent inhibition” value stood at 68%. In addition, in assay [2], the inhibition at 100 µM worked out at 85%, the inhibition at 10 µM came out at 74%, the inhibition at 1 µM came out at 74% and the inhibition at 0.1 µM was determined as 28%.
Take `COc1cccc2c1CCCC21NC(=O)NC1=O` (stereo not drawn) [Ex. XXVI, 3',4'-dihydro-5'-methoxy-spiro[imidazolidine-4,1'(2'H)-naphthalene]-2,5-dione]: in assay [2], the inhibition at 100 µM stood at 72%, the inhibition at 10 µM worked out at 49%, the inhibition at 1 µM amounted to 5% and the inhibition at 0.1 µM is 0%.
As to `COc1ccc2c(c1)C1(CCC2)NC(=O)NC1=O` (stereo not drawn) [Ex. XVI, 3',4'-dihydro-7'-methoxy-spiro[imidazolidine-4,1'(2'H)naphthalene]-2,5-dione], the “Percent inhibition” value is 25% in assay [1] (setting [5]) and 44% in assay [1] (setting [6]). Moreover, in assay [2], the inhibition at 100 µM worked out at 54%. The inhibition at 1 µM in assay [2] amounted to 23%.
For `O=C1NC(=O)C2(CCSc3ccc(F)cc32)N1` (stereo not drawn) [Ex. XII, 6'-fluoro-spiro-[imidazolidine-4,4'-thiochroman]-2,5-dione], the “Percent inhibition” value in assay [1] (0.75 mg./kg. orally at 4, 8 and 24 h after streptozotocin) turned out to be 13%. Further, the “Percent inhibition” value in assay [1] (setting [4]) is 45%. Also, the “Percent inhibition” value in assay [1] (setting [3]) is given as 74%. In assay [2], the inhibition at 100 µM was 81%, the inhibition at 10 µM was 77%, the inhibition at 1 µM came out at 66% and the inhibition at 0.1 µM was 38%.
Take `O=C1NC(=O)C2(CCOc3ccccc32)N1` (stereo not drawn) [Ex. XX, spiro[chroman-4,4'-imidazolidine]-2',5'-dione]: the “Percent inhibition” value in assay [1] (setting [3]) turned out to be 34%. The “Percent inhibition” value in assay [1] (setting [5]) was 58%. Further, the “Percent inhibition” value in assay [1] (setting [6]) worked out at 77%. Moreover, in assay [2], the inhibition at 100 µM worked out at 73%, the inhibition at 10 µM stood at 64%, the inhibition at 1 µM is -9% and the inhibition at 0.1 µM is -16%.
For the compound `O=C1NC(=O)C2(CCc3ccc(O)cc32)N1` (stereo not drawn) [Ex. XIX, 6'-hydroxy-spiro-[imidazolidine-4,1'indan]-2,5-dione], the “Percent inhibition” value in assay [1] (setting [6]) is reported as 15%. Besides, in assay [2], the inhibition at 100 µM was 93%, the inhibition at 10 µM was 31%, the inhibition at 1 µM came to 11% and the inhibition at 0.1 µM is -30%.
Consider `COc1ccc2c(c1)CCCC21NC(=O)NC1=O` (stereo not drawn) [Ex. XVIII, 3',4'-dihydro-6'-methoxy-spiro[imidazolidine-4,1'(2'H)naphthalene]-2,5-dione], for which, in assay [2], the inhibition at 100 µM was 72%, the inhibition at 10 µM is 38%, the inhibition at 1 µM worked out at 15% and the inhibition at 0.1 µM is 7%.
On to `COc1cc2c(cc1OC)C1(CCC2)NC(=O)NC1=O` (stereo not drawn) [Ex. XVII, 3',4'-dihydro-6',7'-dimethoxy-spiro[imidazolidine-4,1'-(2H)naphthalene]-2,5-dione], for which, in assay [2], the inhibition at 100 µM turned out to be 82%, the inhibition at 10 µM worked out at 26%, the inhibition at 1 µM was 8% and the inhibition at 0.1 µM was 16%.
Consider `O=C1NC(=O)C2(CCS(=O)(=O)c3ccccc32)N1` (stereo not drawn) [Ex. XXXII, spiro-[imidazolidine-4,4'-thiochroman]-2,5-dione-1',1'-dioxide], for which, in assay [2], the inhibition at 100 µM came to 94%, the inhibition at 10 µM was 69%, the inhibition at 1 µM amounted to 31% and the inhibition at 0.1 µM is 2%.
As to `COc1ccc2c(c1)CCC21NC(=O)NC1=O` (stereo not drawn) [Ex. VI, 5'-methoxy-spiro-[imidazolidine-4,1'-indan]-2,5-dione], in assay [2], the inhibition at 100 µM came out at 82%, the inhibition at 10 µM is 60%, the inhibition at 1 µM worked out at 13% and the inhibition at 0.1 µM was -10%.
As to `O=C1NC(=O)C2(CCOc3ccc(Br)cc32)N1` (stereo not drawn) [Ex. XXVIII, 6-bromo-spiro-[chroman-4,4'-imidazolidine]-2',5'-dione], the inhibition at 100 µM in assay [2] worked out at 74%.
